“Also recorded” adds a separate entry of the source.
Legend:
human chylomicrons (CM) = test: Ex vivo association with human plasma-derived chylomicrons; format: in vitro ADME; settings: in words; for association with human chylomicrons (CM): 1.755 μM, 37 °C, 1 h, relative to parent drug
Text: The protocol for preparation of human plasma-derived CM emulsion was approved by the Faculty of Medicine and Health Sciences Research Ethics Committee, Queens Medical Centre, Nottingham University Hospitals (BT12102015 CBS SoP). Healthy male volunteers of 19–40 years old and with body mass index of 18.5–25.0 were enrolled in the study after providing informed consent. The participants were excluded if any medication was used within one week prior to enrolment. On the morning of the study, participants received a high-fat meal (equivalent to a full English breakfast). Between 3 and 4 h following breakfast, 30 mL of blood was collected using heparinised tubes (Vacutainer® Blood Collection Tubes) and centrifuged (800 g, 10 min, 15 °C) to obtain plasma.
CM separation was performed as previously reported with minor modifications. Briefly, KBr (0.57 g) was mixed with 4 mL of plasma to yield density of 1.1 g/mL. PBS with densities of 1.006, 1.019, and 1.063 g/mL were prepared by adding appropriate amounts of KBr. These PBS of different densities were layered on top of the plasma to build density gradient layers in polyallomer ultracentrifuge tubes. The samples were then centrifuged at 268,350 g for 35 min at 15 °C using an ultracentrifuge (SORVALL® TH-641 Rotor, Thermo Fisher Scientific, UK). Following ultracentrifugation, approximately 1 mL of the upper layer containing CM was collected. TG concentration of CM emulsion was assessed using the TG enzymatic kit (Sigma Aldrich, Dorset, UK). TG concentration of the emulsion was adjusted to 100 mg/dL by diluting with PBS of 1.006 g/mL density. The CM emulsion was stored at 4 °C until the association assay (˂24 h).
(§1) The association of the compounds with artificial lipid particle emulsion and human CM was assessed using previously reported methodology with minor modifications. Briefly, 1 mL of artificial lipid particle or CM emulsions (TG concentration 100 mg/dL) was used for the association assay. The emulsion was spiked with stock solutions of tested compounds (in acetonitrile) to give a final concentration of 1.755 μM. The reaction mixtures were incubated at 37 °C for 1 h with magnetic stirring at 300 rpm. Following the incubation, density gradient ultracentrifugation was applied as described above to isolate the artificial lipid particles or CM associated with the tested compounds from the rest of the experimental medium. All experiments were conducted in quintuplicates or above.

[1] = test system: esterase from porcine liver; test: Prodrug conversion assay in FaSSIF with added esterase activity; format: in vitro ADME; settings: esterase 20 IU/mL, 10 μM, 37 °C, 4 h; in words
Protocol: BEX was purchased from LC Laboratories (Woburn, MA, USA). RA (all-trans), Intralipid®, esterase from porcine liver, sodium taurocholate (NaTc), NaCl, NaF and lecithin were obtained from Sigma (Gillingham, UK). Rat plasma was purchased from Sera Laboratories (West Sussex, UK). Thiazolyl blue tetrazolium bromide (MTT), sesame oil, polyethylene glycol 400 (PEG400) and all solvents (HPLC grade or higher) were purchased from Fisher Scientific (Loughborough, UK).
The prodrugs were tested for their stability and conversion into their corresponding active drug using fasted state simulated intestinal fluid (FaSSIF) with added esterase enzyme activity (20 IU/mL), rat plasma, and postprandial rat lymph. The FaSSIF was prepared as previously described in the literature. The medium was pre-heated to 37 °C prior to the assay for 5 min. […] When the stability of the artificial emulsion-associated prodrugs was tested in plasma, the association of compounds with artificial emulsion was performed prior to stability experiments and the concentrations of the compounds in the associated emulsion were measured. […] Samples were withdrawn at pre-determined time points, and the reaction was terminated by addition of acetonitrile. […] Half-life of active drug release (t1/2) was calculated by the following equation: t1/2 = −0.693/k. […]

[2] = Biodistribution to mesenteric lymph nodes (MLN) and lymph following oral administration in rats; format: in vivo; settings: rat
Protocol: The protocols for pharmacokinetic and biodistribution experiments in this study were reviewed and approved by the University of Nottingham Ethical Review Committee in accordance with the Animals [Scientific Procedures] Act 1986. Male Sprague Dawley rats (Charles River Laboratories, UK) weighing 350–380 g were used. The animals were housed in the Bio Support Unit, University of Nottingham. Continuous lymph collection was performed according to a protocol approved by the Institutional Animal Care and Use Committee at Rutgers, The State University of New Jersey. Male Sprague Dawley rats (Envigo, Inc., NJ, USA) weighing 300–350 g were used for the continuous lymph collection. Animals were allowed free access to food and water and were acclimatised for at least 6 days prior to any procedures at both institutions in a controlled-temperature environment with 12 h light/dark cycles.
Formulations were prepared as described in the above pharmacokinetic study and were delivered by an oral gavage. Animals were euthanised at pre-determined time points. Blood was collected from the posterior vena cava and lymph samples were taken from the mesenteric lymph duct. MLNs were dissected and collected as previously described. The MLNs were isolated from surrounding tissue with care not to compromise the integrity of the lymph nodes. The MLNs were homogenised (POLYTRON® PT 10–35 GT, Kinematica AG, Luzern, Switzerland) with 10 mg/mL NaF in water (1,2, w/v) on an ice bath prior to sample preparation for HPLC analysis.
A combination of protein precipitation and liquid-liquid extraction was applied to samples prior to HPLC injection. To 100 μL sample, 300 μL of acetonitrile was added for protein precipitation and then 300 μL of pH modifier was added when necessary (Supplementary Material Table S2). […] The organic layer was separated and evaporated under N2 gas. Reconstitution solvent (100 μL) was used as detailed in Supplementary Material Table S2 and 40 μL was injected into the HPLC-UV system. […] Therefore, storage and preparation of all samples were performed within the time frame and conditions of confirmed stability.
The HPLC-UV system consisting of a separation module (Waters Alliance 2695) equipped with a UV detector (Waters 996) was used for analysis. Samples in the autosampler were maintained at 4 °C and the column at 40 °C. The stationary and mobile phases were used as specified in Supplementary Material Table S2. BEX and its prodrugs were detected at 259 nm and RA and its prodrugs at 357 nm.

[3] = Prodrug conversion assay in rat plasma; format: in vitro ADME
Protocol: (§2) The prodrugs were tested for their stability and conversion into their corresponding active drug using fasted state simulated intestinal fluid (FaSSIF) with added esterase enzyme activity (20 IU/mL), rat plasma, and postprandial rat lymph. The FaSSIF was prepared as previously described in the literature. The medium was pre-heated to 37 °C prior to the assay for 5 min. The experiment was initiated by spiking stock solutions of prodrugs to give a final concentration of 10 μM of the prodrugs in the medium. When the stability of the artificial emulsion-associated prodrugs was tested in plasma, the association of compounds with artificial emulsion was performed prior to stability experiments and the concentrations of the compounds in the associated emulsion were measured. The emulsion was then spiked to give a concentration of 10 μM of the prodrugs in plasma. The reaction mixtures were incubated at 37 °C and shaken at 200 rpm on a temperature-controlled orbital shaker (Thermo Scientific MaxQ4000, Waltham, MA, USA) for 4 h. Samples were withdrawn at pre-determined time points, and the reaction was terminated by addition of acetonitrile. The samples were then subjected to sample preparation and analysis as described below. The natural log percentage of the prodrug concentration was plotted against incubation time, and the slope (k) was obtained from the plot. Half-life of active drug release (t1/2) was calculated by the following equation: t1/2 = −0.693/k. All experiments were conducted in triplicate.

[4] = Prodrug conversion assay in postprandial rat lymph; format: in vitro ADME; settings: CM-rich postprandial rat lymph, ex vivo; relative to rat plasma
Protocol: as §2, with “The natural log percentage of the prodrug concentration was plotted against incubation time, and the slope (k) was obtained from the plot.” left out, “All experiments were conducted in triplicate.” left out

[5] = In vitro association with artificial lipid particle emulsion prepared from Intralipid; format: in vitro ADME; settings: TG 100 mg/dL, 1.755 μM, 37 °C, 1 h, in words, relative to parent drug
Protocol: To prepare the artificial lipid particle emulsion, Intralipid® 20% (Sigma, Gillingham, UK) was diluted using phosphate buffered saline (PBS) to yield 100 mg/dL of triglyceride (TG) concentration. A TG enzymatic kit (Sigma Aldrich, Dorset, UK) was used to monitor the TG concentration by following manufacturer's instructions.
as §1

C=C(c1ccc(C(=O)OC)cc1)c1cc2c(cc1C)C(C)(C)CCC2(C)C [prodrug 1]
association with human chylomicrons (CM) (human chylomicrons (CM)): equally high affinity to CM

C=C(c1ccc(C(=O)OCCC)cc1)c1cc2c(cc1C)C(C)(C)CCC2(C)C [prodrug 4]
association with human chylomicrons (CM) (human chylomicrons (CM)): equally high affinity to CM

C=C(c1ccc(C(=O)OCCCCCCCC)cc1)c1cc2c(cc1C)C(C)(C)CCC2(C)C [prodrug 9]
conversion to BEX in FaSSIF with esterase [1]: too slow to be detected

C=C(c1ccc(C(=O)OC(COC(=O)CCCCCCCCCCCCCCC)COC(=O)CCCCCCCCCCCCCCC)cc1)c1cc2c(cc1C)C(C)(C)CCC2(C)C [prodrug 13]
concentrations of BEX in intestinal lymphatics (MLNs, lymph) relative to plasma ([2]; BEX analyte, dose equivalent to 10 mg/kg BEX, in words): comparable to that in plasma | intact form of prodrug in samples ([2]; plasma, MLN, lymph, any time point): not found in any sample at any time point | conversion to BEX in rat plasma ([3]; in vitro, 10 μM, 37 °C, 4 h, in words): BEX was not released; also recorded: not observed

C=C(c1ccc(C(=O)OC(C(C)C)C(C)C)cc1)c1cc2c(cc1C)C(C)(C)CCC2(C)C [prodrug 18]
conversion to BEX in FaSSIF with esterase [1]: too slow to be detected

C=C(c1ccc(C(=O)OCCN(C(C)C)C(C)C)cc1)c1cc2c(cc1C)C(C)(C)CCC2(C)C [prodrug 24]
difference in affinity for artificial emulsion versus natural human CM (human chylomicrons (CM)): significant differences

C=C(c1ccc(C(=O)OCc2oc(=O)oc2C)cc1)c1cc2c(cc1C)C(C)(C)CCC2(C)C [prodrug 25]
conversion of emulsion-associated form of prodrug in rat plasma ([3]; prodrug incorporated into Intralipid lipid particles, 10 μM, relative to free form): delayed conversion | half-life at 10 μM ([3]; rat, plasma, in vitro, 37 °C, free form, read-out: half-life of active drug release in rat plasma): 8 min | half-life of active drug release in postprandial lymph [4]: prolonged

CCOC(=O)/C=C(C)/C=C/C=C(C)/C=C/C1=C(C)CCCC1(C)C [prodrug 26]
association with artificial emulsion [5]: improved association | association with human chylomicrons (CM) (human chylomicrons (CM)): improved association

CC1=C(/C=C/C(C)=C/C=C/C(C)=C/C(=O)OCc2oc(=O)oc2C)C(C)(C)CCC1 [prodrug 27]
association with artificial emulsion [5]: improved association | association with human chylomicrons (CM) (human chylomicrons (CM)): improved association

Reference: PMC6143478, “Lipophilic activated ester prodrug approach for drug delivery to the intestinal lymphatic system” (Journal of Controlled Release, 2018)
